Measured values from US6548638B2, “Peptoid and nonpeptoid containing α-keto oxadiazoles as serine protease inhibitors” (Cortech, Inc., priority 1998, dated 2003).

How the values were obtained:
[1] = biological target: T1, HNE (elastase derived from human sputum, HSE) (Homo sapiens, UniProt P08246); assay: In vitro inhibition of elastase (rate assay, N-methoxysuccinyl-Ala-Ala-Pro-Val-p-nitroaniline substrate); assay type: biochemical; conditions: inhibition activity against HNE; IC50 by log-logit method converted to K1 by Dixson plot; pH 8.0, 37° C.
T1 construct: The elastase used in the protocol was derived from human sputum (HSE); purchased Elastin Product Co., Inc, Missouri, USA SE-563; host or cells: human sputum (natural source)
T1 sequence (P08246 30-267): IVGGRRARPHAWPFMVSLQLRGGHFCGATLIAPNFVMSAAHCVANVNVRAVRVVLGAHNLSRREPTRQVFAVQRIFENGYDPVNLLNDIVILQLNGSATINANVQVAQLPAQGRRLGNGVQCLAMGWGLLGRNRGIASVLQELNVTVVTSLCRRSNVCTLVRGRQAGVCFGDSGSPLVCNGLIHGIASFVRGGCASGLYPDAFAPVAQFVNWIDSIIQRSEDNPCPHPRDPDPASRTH

[2] = system: elastase activity in whole blood; assay: Ex vivo inhibition of elastase (whole blood stimulated with opsonized zymosan, after oral administration); assay type: in vivo; conditions: blood sampled 60 minutes after administration, 24 hour fasted animal; for Percent Inhibition at Indicated Dosage, 3 mg/kg: 3 mg/kg oral; for Percent Inhibition at Indicated Dosage, 10 mg/kg: 10 mg/kg oral; for Percent Inhibition at Indicated Dosage, 30 mg/kg: 30 mg/kg oral
Protocol: Sixty (60) minutes after the oral administration of an inhibitor with an appropriate vehicle, a blood sample (0.9 ml) is collected through the abdominal aorta by a syringe containing 0.1 ml of a 3.8% sodium citrate solution.
The blood sample is processed as follows: 60 μl of (final 0.1-1 mg/ml) a suspended solution of opsonized zymosan in Hank's buffer is added to the preincubated whole blood (540 μl) for 5 minutes at 37° C., and the resulting mixture is incubated for 30 minutes at the same temperature. The reaction is terminated by immersing the test tube into ice water. The reaction mixture is then centrifuged at 3,000 rpm for 10 minutes at 4° C. Twenty (20) μl of each of the resulting supernatant (the Sample) is measured for elastase activity.
The mixture consisting of the following components is incubated for 24 hours at 37° C., and then optical density is measured at 405 nm:
A test sample mixed with 1-methyl-2-pyrrolidone instead of the substrate is regarded as Substrate (−). A test sample mixed with saline instead of the Sample is regarded as Blank. The remaining elastase activity in the Sample is calculated according to the following: […]
optical density of Substrate (+)−(optical density of Substrate (−)+optical density of Blank)
as a total production of p-nitroaniline over 24 hours based on a standard curve for the amount of p-nitroaniline.
An average activity is calculated based on the test sample of 5-6 animals. An agent at 3, 10 or 30 mg/kg is orally given by a forced administration to a 24 hour fasted animal at 60 minutes before the blood sampling. Optical density is measured by SPECTRA MAX 250 (Molecular Devices).

SMILES | Ki [1] | Percent Inhibition at Indicated Dosage, 3 mg/kg [2] | Percent Inhibition at Indicated Dosage, 10 mg/kg [2] | Percent Inhibition at Indicated Dosage, 30 mg/kg [2]
COC(=O)NC(C(=O)N1CCCC1C(=O)NC(C(=O)c1nnc(C(C)(C)C)o1)C(C)C)C(C)C [Example 1, Methyloxycarbonyl-L-valyl-N-[1-(2-[5-(tert-butyl)oxadiazolyl]carbonyl)-2-(S)-methylpropyl]-L-prolinamide] | 3 nM |  |  | 
CC(C)C(NC(=O)Cn1c(-c2ccccc2)nccc1=O)C(=O)c1nnc(C(C)(C)c2ccccc2)o1 (racemic) [Example 12, 2-[6-Oxo-2-phenyl-1,6-dihydro-1-pyrimidinyl]-N-[1-(2-[5-(α,α-dimethylbenzyl)-1,3,4-oxadiazolyl]carbonyl)-2-(R,S)-methylpropyl]acetamide] | 1.83 nM |  |  | 
CC(C)C(NC(=O)Cn1c(-c2ccc(F)cc2)nccc1=O)C(=O)c1nnc(C(C)(C)c2ccc3c(c2)OCO3)o1 (racemic) [Example 10, 2-[6-Oxo-2-(4-fluorophenyl)-1,6-dihydro-1-pyrimidinyl]-N-[1-(2-[5-(α,α-dimethyl-3,4-methylenedioxybenzyl)-1,3,4-oxadiazolyl]carbonyl)-2-(R,S)-methylpropyl]acetamide] | 1.53 nM |  |  | 
COC(=O)NC(C(=O)N1CCCC1C(=O)NC(C(=O)c1nnc(C(C)(C)c2ccccc2)o1)C(C)C)C(C)C [Example 2, Methyloxycarbonyl-L-valyl-N-[1-(2-[5-(α,α-dimethylbenzyl)oxadiazolyl]carbonyl)-2-(S)-methylpropyl]-L-prolinamide] | 1.32 nM | 7% | 9% | 62%
CC(C)C(NC(=O)Cn1c(-c2ccccc2)nccc1=O)C(=O)c1nnc(C(C)(C)c2ccc3c(c2)OCO3)o1 (racemic) [Example 9, 2-[6-Oxo-2-phenyl-1,6-dihydro-1-pyrimidinyl]-N-[1-(2-[5-(α,α-dimethyl-3,4-methylenedioxybenzyl)-1,3,4-oxadiazolyl]carbonyl)-2-(R,S)-methylpropyl]acetamide] | 0.34 nM |  |  | 
CC(C)C(NC(=O)Cn1c(-c2ccc(F)cc2)nccc1=O)C(=O)c1nnc(C(C)(C)c2ccccc2)o1 (racemic) [Example 11, 2-[6-Oxo-2-(4-fluorophenyl)-1,6-dihydro-1-pyrimidinyl]-N-[1-(2-[5-(α,α-dimethylbenzyl)-1,3,4-oxadiazolyl]carbonyl)-2-(R,S)-methylpropyl]acetamide] | 5.34 nM |  |  | 
COC(=O)NC(C(=O)N1CCCC1C(=O)NC(C(=O)c1nnc(C(C)(C)c2ccc3c(c2)OCO3)o1)C(C)C)C(C)C [Example 3, Methyloxycarbonyl-L-valyl-N-[1-(2-[5-(α,α-dimethyl-3,4-methylenedioxybenzyl)-1,3,4-oxadiazolyl]carbonyl)-2-(S)-methylpropyl]-L-prolinamide] | 0.24 nM | 44% | 69% | 99%
CC(C)C(NC(=O)Cn1c(-c2ccccc2)ncc(N)c1=O)C(=O)c1nnc(C(C)(C)c2ccc3c(c2)OCO3)o1 (racemic) [Example 8, 2-[5-Amino-6-oxo-2-phenyl-1,6-dihydro-1-pyrimidinyl]-N-[1-(2-[5-(α,α-dimethyl-3,4methylenedioxybenzyl)-1,3,4-oxadiazolyl]carbonyl)-2-(R,S)-methylpropyl]acetamide] | 1.06 nM |  |  | 
